Measurements published in patent US6562843B1, “Substituted 3-pyridyl-4-arylpyrroles, and related therapeutic and prophylactic methods” (Ortho-McNeil Pharmaceutical, Inc., priority 1999, dated 2003).
Counter-ions that a name gives are not always drawn.

Columns and labels:
[1] = system: LPS-induced TNF-α production; experiment: In Vivo Rodent Assay for Inhibition of TNF-α Production (mice); design: species or system Mice (BALB/cJ females); details: oral dosing, LPS 1 mg/kg i.p., serum TNF-α; for inhibition in vivo at 10 mg/kg / inhibition in vivo at 25 mg/kg: Mus musculus, 1 h
Procedure: C. In Vivo Rodent Assay for Inhibition of TNF-α Production
Mice (BALB/cJ females, Jackson Laboratories) or rats (Lewis males, Charles River) were fasted for 30 min prior to oral dosing with 5-10 mL/kg of test compound at 5-50 mg/kg. Thirty minutes after dosing, the animals were injected intraperitoneally with LPS at 1 mg/kg and returned to their cages for 1 h. Animals were anesthetized by CO2, exsanguinated by cardiac puncture and whole blood collected (0.1-0.7 mL). The blood was allowed to clot and serum was transferred to a centrifuge tube. This sample was centrifuged, and serum was collected, aliquoted and frozen at −80° C. Samples were tested by commercial ELISA's for TNF-α (Endogen for mouse TNF-α and Biosource for rat TNF-α).

TNF-α production = experiment: In-Vitro Whole Cell Assay for TNF-α Inhibition (LPS-stimulated PBMC, ELISA); type: cell-based; details: LPS overnight, TNF-α by ELISA
Procedure: B. In-Vitro Whole Cell Assay for TNF-α Inhibition
Freshly obtained venous blood was anticoagulated with heparin, diluted with an equal volume of phosphate buffered saline (“PBS”) and placed in a sterile tube or other container. Aliquots (30 mL) of this mixture were transferred to centrifuge tubes which were underlaid with Ficoll-Hypaque (15 mL). The prepared tubes were centrifuged at 400×g, without braking, for 30 min at room temperature. Approximately ½ to ⅔ of the platelet layer above the mononuclear cell band was removed with a pipette. The majority of the mononuclear cell layer was carefully removed using a pipette and these PBMC's were diluted with PBS and spun at 600×g for 15 min. The resulting PBMC's were washed with another portion of PBS and spun at 400×g for 10 min at room temperature. The recovered pellets were diluted in low endotoxin RPMI/1% FCS culture medium, and gave a cell concentration of 0.5-2.0×10^6 PMBC/mL. A small volume of the suspension was removed for counting on a hemocytometer and the remaining preparation was centrifuged at 200×g for 15 min at room temperature. The recovered pelleted PMBC's were resuspended in RPMI/1% FCS to a concentration of 1.67×10^6/mL.
To run the assay, the PBMC suspension (180 μL) was transferred to duplicate wells of a 96-well flat-bottom microtiter plate and incubated for 1 h at 37° C. A solution of test compound (10 μL: prepared at 20× the desired final concentration) was added to each well and the plate was incubated for 1 h at 37° C. A solution (10 μL) of LPS in RPMI/1% FCS (200 ng/mL) was added and the wells were incubated overnight at 37° C. The supernate (100 μL) was removed from each well and diluted with RPMI/1% FCS (400 μL). The samples were analyzed for TNF-α using a commercial ELISA kit (Genzyme).
The compounds were tested for their ability to inhibit TNF-α production. The IC50 nM results are listed for the indicated compounds.

[2] = molecular target: T1, purified recombinant p38 (6×His-p38 expressed in E.coli) (Homo sapiens, UniProt Q16539); experiment: p38 Inhibition In-Vitro Enzyme Assay; type: biochemical; details: myelin basic protein substrate, 33P-ATP; for inhibition at 10 µM: read-out: % p38 inhib @ 10 μM
T1 construct: 6xHis; made in house; host or cells: E. coli
Procedure: A. p38 Inhibition In-Vitro Enzyme Assay
A solution (38 μL) of purified recombinant p38 (6×His-p38 expressed in E.coli), myelin basic protein substrate (determined empirically), and a buffer of pH 7.5 (Hepes:25 mM, MgCl2:10 mM, MnCl2:10 mM) were added to 92 wells of a 96-well round bottom polypropylene plate. The amount of enzyme was determined empirically based on the linear range of the assay and the acceptable signal to noise ratio. The remaining wells were used for control “CTRL”) and background (“BKG”). The CTRL was prepared with the enzyme, substrate buffer and 2% DMSO, and the BKG was prepared with substrate buffer and 2% DMSO.
A solution (12 μL) of the test compound in DMSO was added to the testing wells. […] The ATP/^33P-ATP solution (10 μL containing 50 μM unlabeled ATP and 1 μCi ^33P-ATP) was added to all wells and the completed plates were mixed and incubated at 30° C. for 30 min. Ice-cold 50% TCA/10 mM sodium phosphate (60 μL) was added to each well and the plates were kept on ice for 15 min. The contents of each well were transferred to the wells of a 96-well filterplate (Millipore, MultiScreen-DP) and the filterplate was placed on a vacuum manifold fitted with a waste collection tray. The wells were washed five times with 10% TCA/10 mM sodium phosphate (200 μL) under vacuum. MicroScint-20 scintillant was added, and the plates were sealed using Topseal-S sheets and counted in a Packard TopCount scintillation counter using a ^33P liquid program with color quench correction, where the output is in color quench-corrected cpm. The % inhibition of each test compound as shown in Table 2 was calculated by the following formula: % inhibition=[1−(sample−BKG)/(CTRL−BKG)]×100.
[…] In addition, the IC50 was calculated for some compounds using the Deltagraph 4-parameter curve-fitting program.

T1 sequence (Q16539 whole entry): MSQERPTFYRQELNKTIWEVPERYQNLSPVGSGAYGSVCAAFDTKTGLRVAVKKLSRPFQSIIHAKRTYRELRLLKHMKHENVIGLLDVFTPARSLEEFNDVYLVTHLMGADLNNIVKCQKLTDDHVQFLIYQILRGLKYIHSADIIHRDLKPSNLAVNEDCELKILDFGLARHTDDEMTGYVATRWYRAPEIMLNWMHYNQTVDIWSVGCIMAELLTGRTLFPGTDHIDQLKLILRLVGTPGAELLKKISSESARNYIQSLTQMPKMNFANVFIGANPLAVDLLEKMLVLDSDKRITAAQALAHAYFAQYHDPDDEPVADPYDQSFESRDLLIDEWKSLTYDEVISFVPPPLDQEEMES

SMILES | IC50 (TNF-α production) | also measured
Fc1ccc(-c2c[nH]cc2-c2ccncc2)cc1F [compound 1] | 20 nM | TNF-α % Inhibition Mouse ([1]; 25 mg/kg): 96%
Cn1cc(-c2ccncc2)c(-c2ccc(F)c(F)c2)c1 [compound 2] | 30 nM | % p38 inhib @ 10 μM [2]: 15%
O=[N+]([O-])c1ccc(-n2cc(-c3ccncc3)c(-c3ccc(F)c(F)c3)c2)cc1 [compound 3] | 2 nM | TNF-α % Inhibition Mouse ([1]; 10 mg/kg): 81%; % p38 inhib @ 10 μM [2]: 80%
N#Cc1ccc(-n2cc(-c3ccncc3)c(-c3ccc(F)c(F)c3)c2)cc1 [compound 4] | 2 nM | inhibition at 10 µM [2]: 21%
CS(=O)(=O)c1ccc(-n2cc(-c3ccncc3)c(-c3ccc(F)c(F)c3)c2)cc1 [compound 5] | 30 nM | –
Cn1cc(-c2ccncc2)c(-c2cc(F)cc(F)c2)c1 [compound 6] | 175 nM | –
Cn1cc(-c2ccncc2)c(-c2ccc(F)c(C(F)(F)F)c2)c1 [compound 7] | 100 nM | inhibition in vivo at 10 mg/kg ([1]; 10 mg/kg): 61%; inhibition in vivo at 25 mg/kg ([1]; 25 mg/kg): 79%
Cn1cc(-c2ccncc2)c(-c2cc(F)cc(C(F)(F)F)c2)c1 [compound 8] | 1500 nM | –
Cn1cc(-c2ccncc2)c(-c2cccc(C(F)(F)F)c2)c1 [compound 9] | 125 nM | –
Cn1cc(-c2ccncc2)c(-c2cccc(F)c2)c1 [compound 10] | 125 nM | –
Cn1cc(-c2ccncc2)c(-c2cccc([N+](=O)[O-])c2)c1 [compound 11] | 100 nM | inhibition in vivo at 10 mg/kg ([1]; 10 mg/kg): 74%; inhibition in vivo at 25 mg/kg ([1]; 25 mg/kg): 94%
Oc1cccc(-c2c[nH]cc2-c2ccncc2)c1 [compound 12, 3-(3-Hydroxyphenyl)-4-(4-pyridyl)pyrrole Hydrobromide] | 300 nM | –
COc1cccc(-c2c[nH]cc2-c2ccncc2)c1 [compound 13, 3-(3-Methoxyphenyl)-4-(4-pyridyl)pyrrole] | 55 nM | –
COc1cccc(-c2cn(C)cc2-c2ccncc2)c1 [compound 14] | 55 nM | TNF-α % Inhibition Mouse ([1]; 10 mg/kg): 41%; TNF-α % Inhibition Mouse ([1]; 25 mg/kg): 71%; % p38 inhib @ 10 μM [2]: 43%
COc1cccc(-c2cn(-c3ccc([N+](=O)[O-])cc3)cc2-c2ccncc2)c1 [compound 15] | 20 nM | –
COc1cccc(-c2cn(-c3ccc(NC(C)=O)cc3)cc2-c2ccncc2)c1 [compound 16] | 75 nM | TNF-α % Inhibition Mouse ([1]; 25 mg/kg): 50%
COc1cccc(-c2cn(-c3ccc(N)cc3)cc2-c2ccncc2)c1 [compound 17] | 95 nM | TNF-α % Inhibition Mouse ([1]; 25 mg/kg): 66%
COc1cccc(-c2cn(-c3ccc(C#N)cc3)cc2-c2ccncc2)c1 [compound 18] | 15 nM | TNF-α % Inhibition Mouse ([1]; 10 mg/kg): 24%; TNF-α % Inhibition Mouse ([1]; 25 mg/kg): 60%; % p38 inhib @ 10 μM [2]: 23%
COc1cccc(-c2cn(-c3ccc(S(C)(=O)=O)cc3)cc2-c2ccncc2)c1 [compound 19] | 30 nM | TNF-α % Inhibition Mouse ([1]; 25 mg/kg): −127%
COc1cccc(-c2cn(-c3ccccn3)cc2-c2ccncc2)c1 [compound 20] | 150 nM | –
COc1cccc(-c2cn(-c3ccc([N+](=O)[O-])cc3[N+](=O)[O-])cc2-c2ccncc2)c1 [compound 21] | 80 nM | –

SMILES | IC50 (TNF-α production) | also measured
COc1cccc(-c2cn(CCCc3ccccc3)cc2-c2ccncc2)c1 [compound 23] | 2000 nM | –
COc1cccc(-c2c[nH]cc2-c2ccncn2)c1 [compound 24] | 250 nM | –
Cn1cc(-c2ccncc2)c(-c2ccsc2)c1 [compound 25] | 900 nM | –
COc1ccc(-c2cn(C)cc2-c2ccncc2)cc1 [compound 26] | 2000 nM | –
Fc1ccc(-c2c[nH]cc2-c2ccncc2)cc1 [compound 27] | 90 nM | inhibition in vivo at 10 mg/kg ([1]; 10 mg/kg): 73%; inhibition in vivo at 25 mg/kg ([1]; 25 mg/kg): 100%
Cn1cc(-c2ccncc2)c(-c2ccc(F)cc2)c1 [compound 29, 1-Methyl-3-(4-fluorophenyl)-4-(4-pyridyl)pyrrole] | 200 nM | inhibition at 10 µM [2]: 34%
Nc1ccc(-n2cc(-c3ccc(F)cc3)c(-c3ccncc3)c2CCCc2ccccc2)cc1 [compound 33, 1-(4-Aminophenyl)-4-(4-fluorophenyl)-2-(3-phenylpropyl)-3-(4-pyridyl)pyrrole] | 8 nM | inhibition at 10 µM [2]: 51%
Cn1cc(-c2ccncc2)c(-c2ccncc2)c1 [compound 34] | 3000 nM | –
CSc1ccc(-c2cn(C)cc2-c2ccncc2)cc1 [compound 35] | 250 nM | –
CN(C)c1ccc(-c2cn(C)cc2-c2ccncc2)cc1 [compound 36] | 500 nM | –
Cn1cc(-c2ccncc2)c(-c2ccc([S+](C)[O-])cc2)c1 (stereo not shown) [compound 37] | 3000 nM | –
Cn1cc(-c2ccccc2)c(-c2ccncc2)c1 [compound 38] | 350 nM | –
Fc1ccc(-c2cn(CCCN3CCCCC3)c(CCCc3ccccc3)c2-c2ccncc2)cc1 [compound 39] | 5 nM | inhibition in vivo at 10 mg/kg ([1]; 10 mg/kg): 36%; inhibition in vivo at 25 mg/kg ([1]; 25 mg/kg): 100%
Fc1ccc(-c2cn(CCN3CCCCC3)c(CCCc3ccccc3)c2-c2ccncc2)cc1 [compound 40] | 3 nM | inhibition in vivo at 10 mg/kg ([1]; 10 mg/kg): 96%; inhibition in vivo at 25 mg/kg ([1]; 25 mg/kg): 96%
CN1CCCC1CCn1cc(-c2ccc(F)cc2)c(-c2ccncc2)c1CCCc1ccccc1 (stereo not shown) [compound 41] | 5 nM | inhibition in vivo at 10 mg/kg ([1]; 10 mg/kg): 100%; inhibition in vivo at 25 mg/kg ([1]; 25 mg/kg): 100%
CN1CCCC(Cn2cc(-c3ccc(F)cc3)c(-c3ccncc3)c2CCCc2ccccc2)C1 (stereo not shown) [compound 42] | 2 nM | inhibition in vivo at 10 mg/kg ([1]; 10 mg/kg): 100%; inhibition in vivo at 25 mg/kg ([1]; 25 mg/kg): 100%
Fc1ccc(-c2cn(CCN3CCOCC3)c(CCCc3ccccc3)c2-c2ccncc2)cc1 [compound 43] | 1 nM | inhibition in vivo at 10 mg/kg ([1]; 10 mg/kg): 93%; inhibition in vivo at 25 mg/kg ([1]; 25 mg/kg): 93%
CN(C)CCCn1cc(-c2ccc(F)cc2)c(-c2ccncc2)c1CCCc1ccccc1 [compound 44] | 8 nM | inhibition in vivo at 10 mg/kg ([1]; 10 mg/kg): 100%; inhibition in vivo at 25 mg/kg ([1]; 25 mg/kg): 100%
Fc1ccc(-c2cn(CCN3CCCC3)c(CCCc3ccccc3)c2-c2ccncc2)cc1 [compound 45] | 3 nM | inhibition in vivo at 10 mg/kg ([1]; 10 mg/kg): 99%; inhibition in vivo at 25 mg/kg ([1]; 25 mg/kg): 99%
OCCCc1[nH]cc(-c2ccc(F)cc2)c1-c1ccncc1 [compound 46, 4-(4-Fluorophenyl)-2-(3-hydroxypropyl)-3-(4-pyridyl)pyrrole] | 544 nM | –
Fc1ccc(-c2c[nH]c(CCCN3CCOCC3)c2-c2ccncc2)cc1 [compound 47, 4-(4-Fluorophenyl)-2-(3-morpholinopropyl)-3-(4-pyridyl)pyrrole] | 177 nM | inhibition in vivo at 25 mg/kg ([1]; 25 mg/kg): 77%
